Results from US5955491A, “Method for treating osteoporosis” (Takeda Chemical Industries, Ltd., priority 1993, dated 1999).
Peptide text beside a SMILES is read from it. * marks the point of attachment. MeOSuc = COC(=O)CCC(=O)*; Cbz = O=C(OCc1ccccc1)*; Boc = CC(C)(C)OC(=O)*; Bz = O=C(c1ccccc1)*

Legend:
[1] = tested on: fetal rat forearm bones (radius and ulna), bone resorption; assay: Bone resorption suppressing action (^45 Ca release from cultured fetal rat forearm bones, method of Raisz); assay type: cell-based, Sprague-Dawley rat; details: 48 h, cultured two days, control = no test compound, mean of five bone fragments, read-out: Bone Resorption Inhibitory Activity [^45 Ca Release Rate (Percent to Control)]; for activity at 10 µg/mL: Concentration of Compound 10 μg/ml; for activity at 10 µM: Concentration of Compound 10 μM
From the text: Specifically, one Sprague-Dawley rat, at 18 days of gestation, was given 50 μCi of ^45 Ca (calcium isotope, in CaCl2 solution) by subcutaneous injection. On the following day, the animal was laparotomized and fetal rats aseptically removed. Both forearm bones (radius and ulna) were cut out from the body of each fetus under an anatomical microscope, and connective tissue and cartilages were removed to the maximum possible extent, to prepare bone culture samples. Each bone fragment was pre-cultured at 37° C. for 24 hours in 0.6 ml of BGJb medium (Fitton-Jackson modification, GIBCO Laboratories, United States) prepared by adding bovine serum albumin (final concentration 2 mg/ml), after which it was transferred to the same medium as above but containing each compound (final concentration 10 μg/ml or 10 μM) and cultured for two more days. ^45 Ca radioactivity in the medium and ^45 Ca radioactivity in the bone were then measured, and the percent ratio of ^45 Ca released from the bone to the medium was calculated using the following equation: [formula]
For control, bone fractions from fetuses of the same litter were cultured for two days in the absence of the test compound. The mean q standard deviation for the values from five bone fragments in each group were calculated, and their percent ratios to the control were calculated.

[2] = target: T1, human cathepsin L (Homo sapiens, UniProt P07711); assay: Determination of human cathepsin L inhibitory activity (recombinant enzyme, Z-Phe-Arg-NMec substrate); assay type: biochemical; details: pH 5.5, 30° C., 10 minutes
T1 construct: made in house; host or cells: mouse myeloma Sp2/0 cells stably transformed with pTBN-HCLneo (Sp-HCL26); purified from serum-free culture supernatant on CM-Sephadex C-50 and Mono S
T1 sequence (P07711 114-333): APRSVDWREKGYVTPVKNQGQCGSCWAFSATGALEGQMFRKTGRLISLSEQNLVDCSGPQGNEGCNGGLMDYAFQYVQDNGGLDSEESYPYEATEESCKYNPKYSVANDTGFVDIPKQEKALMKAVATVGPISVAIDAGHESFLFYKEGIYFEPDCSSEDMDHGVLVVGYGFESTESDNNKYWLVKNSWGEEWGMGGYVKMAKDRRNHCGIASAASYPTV
Experimental: This fraction was applied to a Mono S column (HR5/5) of an FPLC system (produced by Pharmacia), followed by column washing and human cathepsin L elution in the same manner as above.
Experimental Example 8: Determination of human cathepsin L inhibitory activity
The recombinant human cathepsin L purified in Experimental Example 7 was diluted with a diluent [0.1% Brij 35 (produced by Sigma Chemical Company)] to a concentration of 1 μg/ml. To 1 μl of this enzyme dilution, 46 μl of the diluent, 2 μl of 0.1M DTT and 25 μl of an activator/buffer (340 mM sodium acetate, 60 mM acetic acid, 4 mM disodium EDTA, pH 5.5) were added. To this mixture were added a 1 μl sample, diluted to 10^-2 M with dimethyl sulfoxide (DMSO), and 25 μl of 20 μM Z-Phe-Arg-NMec (enzyme substrate solution), followed by incubation at 30° C. for 10 minutes, after which 100 μl of a reaction stopper (100 mM sodium monochloroacetate, 30 mM sodium acetate, 70 mM acetic acid, pH 4.3) was added. This reaction was carried out on a 96-well fluoroplate (produced by Labo Systems).
After the reaction was stopped, the fluorescence intensity of free aminomethylcoumarin was determined at a wavelength of 450 nm (excitation wavelength=365 nm), using a fluorometer FCA (produced by Baxter). For a control, 1 μl of sample-free DMSO was added instead; the fluorometric value obtained from this control reaction was taken as 100% activity.

Row | Compound | IC50 [2] | activity at 10 µg/mL [1] | activity at 10 µM [1]
1 | CC[C@H](C)[C@H](NC(=O)OCCC12CC3CC(CC(C3)C1)C2)C(=O)N[C@H](C(=O)N[C@H](C=O)Cc1c[nH]c2ccccc12)[C@@H](C)CC [Example 112] | 380 nM | 43% | 
2 | C[C@H](NS(=O)(=O)c1cccc2ccccc12)C(=O)N[C@H](C=O)Cc1c[nH]c2ccccc12 [Example 124] |  |  | 79%
3 | CC[C@H](C)[C@H](NS(=O)(=O)c1cccc2ccccc12)C(=O)N[C@H](C=O)Cc1c[nH]c2ccccc12 [Example 103, N-(1-naphthylsulfonyl)-(L)-isoleucyl-(L)-tryptophanal] |  | 49% | 
4 | CC[C@H](C)[C@H](NC(=O)CCC(=O)OC)C(=O)N[C@H](C(=O)N[C@H](C=O)Cc1c[nH]c2ccccc12)[C@@H](C)CC [Example 111] (MeOSuc-Ile-Ile-Trp-aldehyde) | 14 nM | 32% | 
5 | O=C(N[C@H](CO)Cc1c[nH]c2ccccc12)C(Cc1ccccc1)Cc1ccccc1 [Example 26, N-dibenzylacetyl-(L)-tryptophanol] |  |  | 79%
6 | CC[C@H](C)[C@H](NC(=O)[C@@H](NS(=O)(=O)c1cccc2ccccc12)[C@@H](C)CC)C(=O)NC(C=O)Cc1cccc2ccccc12 (stereo partly drawn) [Example 118, N-(1naphthylsulfonyl)-(L)-isoleucyl-(L)-isoleucyl-(DL)-(1-naphthyl)alaninal] | 220 nM |  | 
7 | CC[C@H](C)[C@H](NC(=O)NCCC1CCCCC1)C(=O)N[C@H](C=O)Cc1c[nH]c2ccccc12 [Example 115, N-[(2-cyclohexylethyl)carbamoyl]-(L)-isoleucyl-(L)-tryptophanal] | 48 nM |  | 
8 | CC(C)[C@H](NC(=O)c1ccccc1)C(=O)N[C@H](CO)Cc1c[nH]c2ccccc12 [Example 38] |  |  | 76%
9 | CC[C@H](C)[C@H](NS(=O)(=O)c1cccc2ccccc12)C(=O)N[C@H](CO)Cc1c[nH]c2ccccc12 [Example 3, N-(1-naphthylsulfonyl)-(L)-isoleucyl-(L)-tryptophanol] |  | 49% | 
10 | CC[C@H](C)[C@H](NC(=O)OCc1ccccc1)C(=O)N[C@H](C=O)Cc1ccc(OC(C)C)cc1 [Example 157] |  |  | 72%
11 | Cc1ccc(CC(Cc2ccccc2)C(=O)N[C@H](CO)Cc2c[nH]c3ccccc23)cc1 (stereo partly shown) [Example 84] |  |  | 74%
12 | CCOP(=O)(Cc1ccc(NC(=O)C(Cc2ccccc2)C(=O)N[C@H](C=O)Cc2c[nH]c3ccccc23)cc1)OCC (stereo partly shown) [Example 188] | 37 nM |  | 
13 | CC[C@H](C)[C@H](NC(=O)OCc1ccccc1)C(=O)N[C@H](C(=O)N[C@H](C=O)Cc1c[nH]c2ccccc12)[C@@H](C)CC [Example 108, N-(benzyloxycarhonyl)-(L)-isoleucyl-(L)-isoleucyl-(L)-tryptophanal] (Cbz-Ile-Ile-Trp-aldehyde) | 5.4 nM | 42% | 
14 | CC[C@H](C)[C@H](NC(=O)OCc1ccccc1)C(=O)N[C@H](CO)Cc1cn(C(C)(C)C)c2ccccc12 [Example 59] |  |  | 67%
15 | CC(C)[C@H](NC(=O)c1ccccc1)C(=O)N[C@H](C=O)Cc1c[nH]c2ccccc12 [Example 134] (Bz-Val-Trp-aldehyde) |  |  | 66%
16 | CC[C@H](C)[C@H](NS(=O)(=O)c1cccc2ccccc12)C(=O)N[C@H](C=O)Cc1ccc(O)cc1 [Example 158] |  |  | 65%
17 | CC[C@H](C)[C@H](NS(=O)(=O)c1cccc2ccccc12)C(=O)N[C@@H](C)C=O [Example 153, N-(1-naphthylsulfonyl)-(L)-isoleucylalanal] |  |  | 74%
18 | O=C[C@H](Cc1c[nH]c2ccccc12)NC(=O)C(Cc1ccccc1)Cc1ccccc1 [Example 122, N-dibenzylacetyl-(L)-tryptophanal] | 32 nM |  | 73%
19 | CC[C@H](C)[C@H](NC(=O)[C@@H](NS(=O)(=O)c1cccc2ccccc12)[C@@H](C)CC)C(=O)N[C@H](C=O)Cc1c[nH]c2ccccc12 [Example 110, N-(1-naphthylsulfonyl)-(L)-isoleucyl-(L)-isoleucyl-(L)-tryptophanal] | 16 nM | 46% | 
20 | CC[C@H](C)[C@H](NC(=O)OC(C)(C)C)C(=O)N[C@H](C(=O)N[C@H](C=O)Cc1c[nH]c2ccccc12)[C@@H](C)CC [Example 109] (Boc-Ile-Ile-Trp-aldehyde) | 10 nM | 38% | 
21 | CC[C@H](C)[C@H](NC(=O)OCc1ccccc1)C(=O)N[C@H](C=O)Cc1c[nH]c2ccccc12 [Example 107] | 11 nM |  | 

Second part, led by results:

Row | IC50 [2] | Compound | activity at 10 µg/mL [1] | activity at 10 µM [1]
22 | 85 nM | CCCC(Sc1ccccc1)C(=O)N[C@H](C=O)Cc1c[nH]c2ccccc12 (stereo partly shown) [Example 129] |  | 
23 | 6.1 nM | CC[C@H](C)[C@H](NC(=O)OC(C)(C)C)C(=O)N[C@H](C=O)Cc1cn(C)c2ccccc12 [Example 150] |  | 
24 | 0.95 nM | CC[C@H](C)[C@H](NS(=O)(=O)c1cccc2ccccc12)C(=O)N[C@H](C=O)Cc1ccccc1 [Example 154, N-(1-naphthylsulfonyl)-(L)-isoleucyl-(L)-phenylalaninal] |  | 
25 | 19 nM | O=C[C@H](Cc1c[nH]c2ccccc12)NC(=O)[C@H](Cc1ccccc1)NC(=O)c1ccccc1 [Example 128] (Bz-Phe-Trp-aldehyde) |  | 73%
26 | 3.9 nM | CC[C@H](C)[C@H](NC(=O)c1cc(=O)c2ccccc2o1)C(=O)N[C@H](C=O)Cc1c[nH]c2ccccc12 [Example 193] |  | 
27 | 4.7 nM | O=C[C@H](Cc1c[nH]c2ccccc12)NC(=O)C(Cc1ccccc1)C(=O)NCc1ccccc1 (stereo partly shown) [Example 191] |  | 
28 | 55 nM | O=C[C@H](Cc1c[nH]c2ccccc12)NC(=O)C(Cc1ccccc1)C(=O)N(Cc1ccccc1)Cc1ccccc1 (stereo partly shown) [Example 190] |  | 
29 | 4.2 nM | O=C[C@H](Cc1c[nH]c2ccccc12)NC(=O)C(c1ccccc1)c1ccccc1 [Example 192] |  | 
30 | 0.99 nM | CC(C)[C@H](NC(=O)OCc1ccccc1)C(=O)N[C@H](C=O)Cc1c[nH]c2ccccc12 [Example 132] (Cbz-Val-Trp-aldehyde) |  | 74%
31 | 1 nM | CCCC(CCC)C(=O)N[C@H](C(=O)N[C@H](C=O)Cc1c[nH]c2ccccc12)C(C)C [Example 135, N-(2-propylpentanoyl)-(L)-valyl-(L)-tryptophanal] |  | 45%
32 | 26 nM | CC(C)[C@@H](C=O)NC(=O)C(Cc1ccccc1)Cc1ccccc1 [Example 168] |  | 
33 | 2.4 nM | CCCC(CCC)C(=O)N[C@@H](CC(C)C)C(=O)N[C@H](C=O)Cc1c[nH]c2ccccc12 [Example 144] |  | 60%
34 | 43 nM | CC[C@@H](C=O)NC(=O)C(Cc1ccccc1)Cc1ccccc1 [Example 167] |  | 
35 | 19 nM | CC(C)C[C@H](NS(=O)(=O)c1cccc2ccccc12)C(=O)N[C@@H](Cc1c[nH]c2ccccc12)C(=O)NCC=O [Example 175] |  | 
36 | 1.7 nM | CC(C)C[C@H](NC(=O)c1ccccc1)C(=O)N[C@H](C=O)Cc1c[nH]c2ccccc12 [Example 143] |  | 
